Experimental data as given in patent publication US11673861B2, “Perfluorinated 1-alkoxypropenes, compositions, and methods and apparatuses for using same” (priority 2017, dated 2023).

Legend:
[1] = Dielectric breakdown strength, ASTM D877-13 Procedure A; assay type: physicochemical; conditions: electrode spacing 2.54 mm, rate of rise 500 V/sec
Protocol: (§1) Dielectric breakdown strength and dielectric constant were measured for PE-1, PE-2, CE-1 to CE-4. The dielectric constants presented in Table 7, below, were measured using the broadband Novocontrol Dielectric Spectrometer per ASTM D150-11. The dielectric breakdown strengths presented in Table 7 were measured according to ASTM D877-13, Procedure A, with the following modification: spacing between the electrodes was 2.54 mm and rate of rise was 500 V/sec.

[2] = Dielectric constant, ASTM D150-11; assay type: physicochemical
Protocol: as §1

rats = assay: Toxicity screening study in rats, 4 h inhalation LC-50; assay type: in vivo
Protocol: MA-3 (50 g, 160 mmol) was charged to a 3-neck flask equipped with a water-cooled condenser and magnetic stir bar. SbF5 was then added dropwise to the stirring MA-3 and a large exotherm was observed. The resultant reaction mixture was allowed to stir at room temperature for 1 h. GC-FID analysis of the reaction mixture indicated complete consumption of the MA-3 starting material. Water was then added to the mixture with stirring. The fluorous phase was collected and distilled by concentric tube distillation (59° C., 740 mmHg, 98.7 kPa) affording the desired MP-3 (41.2 g, 82% yield) as a colorless liquid. Both E- and Z-isomers were obtained as a mixture. […] The structure was confirmed by GC-MS and ^19F NMR analyses to be that of the desired product.

[3] = Boiling point, ASTM D1120-94; assay type: physicochemical; conditions: temperature at 760 mmHg
Protocol: Vapor Pressure was measured using the stirred-flask ebulliometer method described in ASTM E1719-97 “Vapor Pressure Measurement by Ebulliometry.” This method is also referred to as “Dynamic Reflux.” The boiling point was measured using ASTM D1120-94 “Standard Test Method for Boiling Point of Engine Coolants.” The method used a 50-mL glass round-bottom flask. Vacuum was measured and controlled using a vacuum controller available from J-KEM Scientific, Inc., St. Louis, Mo., USA. The pressure transducer was calibrated on the day of measurement by comparison with full vacuum and with an electronic barometer located in the same laboratory. The procedure was carried out by slowly heating the material, then applying vacuum until boiling occurred and a steady dropwise reflux rate was established. Pot temperature and pressure reading were recorded, then the vacuum controller was set for a higher absolute pressure and the material was heated further until a new reflux point was established. The pressure level was raised in increments until the vapor pressure curve was obtained up to the atmospheric boiling point.
The boiling point of PE-1 is 60.1° C., which is the temperature at 760 mmHg. The boiling point of PE-2 is 88.1° C., which is the temperature at 760 mmHg.

[4] = Pour point, determined visually; assay type: physicochemical
Protocol: The useful liquid range of a perfluorinated 1-alkoxypropene compound of the present disclosure is between its pour point and its boiling point. A pour point is the lowest temperature at which the compound is still able to be poured. The pour point can be determined, for example, by ASTM D97-16 “Standard Test Method for Pour Point of Petroleum Products.” In one embodiment, the compounds of the present disclosure have a pour point of less than −100° C., less than −120° C., less than −130° C., or less than −140° C. Pour Point can be measured by placing a sealed glass vial containing 3 mL of the fluid into a refrigerated bath, adjusting temperature incrementally and checking for pouring. Pouring is defined as visible movement of the material during a five second count. This criterion is specified in ASTM D97-16.
One to two milliliters of the sample were placed in a vial and cooled in a bath until it solidified. The sample was then allowed to warm slowly in the bath and observed every 3-5° C.

[5] = Thermal stability with absorbents, GC-FID purity; assay type: physicochemical
Protocol: The thermal stability was measured by charging 1.0 g of Preparatory Example 2 into glass vials and then adding 0.10 g of absorbent. The samples were stirred for 24 h at 50° C. and then analyzed by GC-FID for decomposition and purity changes.

Row | Structure (SMILES) | Dielectric Breakdown Voltage [1] | Dielectric Constant (measured at 1 kHz) [2] | 4 h inhalation LC-50 (rats) | Boiling point [3] | Pour point [4] | Purity (%) ([5]; 4 Angstrom Molecular Sieves, 24 h at 50° C.) | Purity (%) ([5]; Activated Carbon, 24 h at 50° C.) | Purity (%) ([5]; Basic Alumina, 24 h at 50° C.) | Purity (%) ([5]; K2CO3, 24 h at 50° C.) | Purity (%) ([5]; No Absorbent, 24 h at 50° C.) | Purity (%) ([5]; Silica Gel, 24 h at 50° C.)
1 | FC(F)=C(F)C(F)(F)OC(F)(F)C(F)(F)C(F)(F)OC(F)(F)F [MA-31, 1,1,2,3,3-Pentafluoro-3-(1,1,2,2,3,3-hexafluoro-3-(trifluoromethoxy)propoxy)prop-1-ene, reference compound] | 39.4 kV | 2.37 | – | – | – | – | – | – | – | – | –
2 | FC(F)=C(F)C(F)(F)OC(F)(F)C(F)(F)C(F)(F)F [MA-3, 1,1,2,3,3-pentafluoro-3-(perfluoropropoxy)prop-1-ene, reference compound] | 30.7 kV | 2.37 | – | – | – | – | – | – | – | – | –
3 | FC(OC(F)(F)C(F)(F)C(F)(F)F)=C(F)C(F)(F)F [PE-1, 1,2,3,3,3-pentafluoro-1-(perfluoropropoxy)prop-1-ene] | 41.7 kV | 2.04 | greater than 10,000 ppm | 60.1 °C | −145 °C | – | – | – | – | – | –
4 | FC(OC(F)(F)C(F)(F)C(F)(F)OC(F)(F)F)=C(F)C(F)(F)F [PE-2, 1,2,3,3,3-pentafluoro-1-(1,1,2,2,3,3-hexafluoro-3-(trifluoromethoxy)propoxy)prop-1-ene] | >60 kV | 2.04 | – | 88.1 °C | −140 °C | 99.5% | 99.5% | 99.5% | 99.3% | 99.5% | 99.4%
